{
  "source": "patent US20250228864A1",
  "about": "“THERAPIES FOR THE TREATMENT OF INFLAMMATORY BOWEL DISEASE” (Gilead Sciences, Inc., priority 2023, published 2025)",
  "target": "T1, α4β7 receptors on β7+CD4+CD45RO+ memory T cells (Homo sapiens, UniProt P13612+P26010)",
  "T1 construct": "endogenous in cells",
  "T1 sequence (P13612 34-1032)": "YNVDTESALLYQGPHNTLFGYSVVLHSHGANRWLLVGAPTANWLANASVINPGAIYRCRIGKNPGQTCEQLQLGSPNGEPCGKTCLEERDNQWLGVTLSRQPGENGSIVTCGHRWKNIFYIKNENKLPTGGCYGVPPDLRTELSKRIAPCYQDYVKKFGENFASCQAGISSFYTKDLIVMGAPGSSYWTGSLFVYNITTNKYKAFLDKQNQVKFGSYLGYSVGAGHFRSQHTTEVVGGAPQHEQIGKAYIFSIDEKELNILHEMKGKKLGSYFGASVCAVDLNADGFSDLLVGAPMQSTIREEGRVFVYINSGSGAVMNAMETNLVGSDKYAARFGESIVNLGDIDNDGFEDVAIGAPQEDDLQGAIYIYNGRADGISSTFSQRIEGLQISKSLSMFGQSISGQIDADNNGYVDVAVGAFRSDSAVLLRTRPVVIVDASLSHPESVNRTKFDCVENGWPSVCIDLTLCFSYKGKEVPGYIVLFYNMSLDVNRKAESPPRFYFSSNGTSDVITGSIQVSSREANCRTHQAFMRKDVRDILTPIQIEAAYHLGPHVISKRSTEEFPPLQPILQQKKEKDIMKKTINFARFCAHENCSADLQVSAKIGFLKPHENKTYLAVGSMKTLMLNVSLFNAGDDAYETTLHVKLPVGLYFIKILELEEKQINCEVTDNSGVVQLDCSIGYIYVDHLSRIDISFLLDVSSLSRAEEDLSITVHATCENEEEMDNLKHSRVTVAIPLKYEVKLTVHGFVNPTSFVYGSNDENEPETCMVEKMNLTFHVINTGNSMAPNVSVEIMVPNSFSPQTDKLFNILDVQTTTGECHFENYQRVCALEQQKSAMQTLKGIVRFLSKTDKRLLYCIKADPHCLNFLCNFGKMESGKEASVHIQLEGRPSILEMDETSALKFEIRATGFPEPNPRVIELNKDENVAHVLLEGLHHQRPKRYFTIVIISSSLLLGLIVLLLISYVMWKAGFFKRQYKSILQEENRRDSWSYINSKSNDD",
  "T1 sequence (P26010 20-798)": "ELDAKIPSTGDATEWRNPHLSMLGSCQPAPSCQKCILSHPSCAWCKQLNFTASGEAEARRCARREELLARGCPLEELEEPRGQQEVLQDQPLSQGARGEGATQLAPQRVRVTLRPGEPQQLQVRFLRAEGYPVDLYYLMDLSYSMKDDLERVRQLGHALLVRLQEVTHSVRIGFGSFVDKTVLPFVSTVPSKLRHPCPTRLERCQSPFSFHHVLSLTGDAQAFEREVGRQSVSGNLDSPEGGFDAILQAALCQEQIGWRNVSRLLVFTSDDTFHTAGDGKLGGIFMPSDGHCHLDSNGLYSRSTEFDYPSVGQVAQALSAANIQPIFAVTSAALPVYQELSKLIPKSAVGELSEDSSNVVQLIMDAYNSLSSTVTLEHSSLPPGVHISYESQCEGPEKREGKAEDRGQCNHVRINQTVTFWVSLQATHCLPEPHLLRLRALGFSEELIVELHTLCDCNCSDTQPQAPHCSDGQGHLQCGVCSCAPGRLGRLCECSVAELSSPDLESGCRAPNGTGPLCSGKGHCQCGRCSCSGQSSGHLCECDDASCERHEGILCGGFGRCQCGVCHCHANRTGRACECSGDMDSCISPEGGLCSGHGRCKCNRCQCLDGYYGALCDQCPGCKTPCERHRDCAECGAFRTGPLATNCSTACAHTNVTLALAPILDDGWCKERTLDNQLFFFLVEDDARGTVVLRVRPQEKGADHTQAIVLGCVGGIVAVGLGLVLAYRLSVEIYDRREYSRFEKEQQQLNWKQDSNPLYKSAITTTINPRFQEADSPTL",
  "experiment": "Whole blood α4β7 receptor occupancy (RO) assay by flow cytometry in SAD and MAD cohorts",
  "assay_type": "in vivo",
  "conditions": "for time post last dose (Day 14) until which α4β7 % RO≥95% was sustained: 100% of participants",
  "description": "Formula (III) is a prodrug of Formula (I) and undergoes a rapid conversion to its active metabolite (Formula (I)) when administered to a human. The pharmacodynamics (PD) of the active metabolite of Formula (III) were analyzed in healthy volunteers by measuring the metabolites receptor occupancy (RO) on α4β7 receptors in whole blood to inform Formula (III) dose selection and schedule.\nA whole blood RO assay was developed and fit-for-purpose-validated that measures free α4β7 receptors on […] memory T cells in fresh whole blood by flow cytometry. The β7+CD4+CD45RO+ memory T-cells were identified using a staining panel comprised of fluorescently labelled anti-CD3, -CD4, -CD8, -CD45RO, and -β7 antibodies (Biolegend) (Table 14) as soon as possible after blood collection. Biotinylated human MAdCAM-1 protein, the natural ligand for α4β7, is mixed with streptavidin PE dextramer (Immudex) (MDX) and added to the whole blood in the presence of the divalent cation manganese (as MnCl2). MDX and the metabolite compete for binding to the α4β7 integrin receptor. Specimen data are acquired immediately on a BD LSRFortessa X-20 Cell Analyzer flow cytometer using a α4β7 RO cell acquisition template and application settings. The gating strategy is as follows: lymphocytes are gated based on size (FSC-A) and complexity (SSC-A). Doublets are removed using FSC-A/FSC-H. CD3+ lymphocytes are further differentiated into CD4+ and CD8+ T cells. CD4+CD45RO+ positive T cells are gated on β7 integrin and MDX positivity. The fluorescent intensities of PE-MDX β7+CD4+CD45RO+ memory T cells in pre-dose and post-dose whole blood are used to calculate the % RO post-dose. The lower level of quantification (LLOQ) of the assay was estimated to be ˜40% for a single measurement; similarly, the a4b7 RO assay was fit-for purpose validated to precisely quantify % RO up to 95% RO. Actual measured values <40% RO and ≥95% RO are shown but represent best estimates.\nWhole blood was collected pre- and post-Formula (III) or placebo to match (PTM) administration and percent α4β7 RO was calculated for all postbaseline time points in the SAD and MAD cohorts of the study. α4β7% RO was evaluated in all participants in Part A (SAD, Formula (III) 20 mg, 60 mg, 200 mg, 500 mg, and 1000 mg administered in liquid filled capsules under fasting conditions), and in Part B (MAD, Formula (III) 20 mg, 80 mg, 200 mg, 500 mg in liquid filled capsules under non-fasting conditions and Formula (III) 200 mg in tablet formulation under fasting conditions). In total, 2,506 samples collected at 35 different time-points from 109 unique participants were analyzed for α4β7% RO.",
  "data": [
    {"molecule": "CCOC(=O)[C@H](Cc1ccc(-n2c(=O)c3ccncc3n(C)c2=O)c2ncccc12)NC(=O)c1c(C)cc(N2CCOC[C@@H]2C(F)(F)F)cc1F", "note": "(atropisomer, axis not shown) [Formula (III)]", "values": [
      {"measurement": "time until which full target engagement could possibly be achieved", "setting": "200 mg capsule nonfasting, after last dose", "result": "approximately 48 h"},
      {"measurement": "α4β7 % RO 72 h postdose, average", "setting": "200 mg capsule nonfasting, after last dose Day 14", "result": 90.1, "unit": "%"},
      {"measurement": "α4β7 % RO at 24 h post last dose on Day 14", "setting": "200 mg capsule nonfasting, all participants", "result": "≥ 95", "unit": "%"},
      {"measurement": "time post last dose (Day 14) until which α4β7 % RO≥95% was sustained", "setting": "200 mg tablet fasting", "result": 72, "unit": "h"},
      {"measurement": "time post last dose (Day 14) until which α4β7 % RO≥95% was sustained", "setting": "500 mg capsule nonfasting", "result": 96, "unit": "h"},
      {"measurement": "α4β7 % RO", "setting": "MAD 20 mg QD capsule nonfasting, Day 1, 3 h postdose", "result": 99.8, "unit": "%"},
      {"measurement": "α4β7 % RO", "setting": "MAD 20 mg QD capsule nonfasting, Day 1, 24 h postdose", "result": 37.8, "unit": "%"},
      {"measurement": "α4β7 % RO", "setting": "MAD 20 mg QD capsule nonfasting, Day 14, 24 h postdose", "result": 69.3, "unit": "%"},
      {"measurement": "α4β7 % RO", "setting": "MAD 20 mg QD capsule nonfasting, Day 14, predose", "result": 70.8, "unit": "%"},
      {"measurement": "change of α4β7 % RO post multiple once daily doses", "setting": "MAD 20 mg, Day 1 to Day 14", "result": "accumulation"},
      {"measurement": "α4β7 % RO", "setting": "MAD 80 mg QD capsule nonfasting, Day 1, 3 h postdose", "result": 99.9, "unit": "%"},
      {"measurement": "α4β7 % RO", "setting": "MAD 80 mg QD capsule nonfasting, Day 1, 24 h postdose", "result": 98.1, "unit": "%"},
      {"measurement": "α4β7 % RO", "setting": "MAD 80 mg QD capsule nonfasting, Day 14, 24 h postdose", "result": 99.4, "unit": "%"},
      {"measurement": "α4β7 % RO", "setting": "MAD 80 mg QD capsule nonfasting, Day 14, predose", "result": 99.3, "unit": "%"},
      {"measurement": "target engagement of α4β7 at 24 h on Day 1", "setting": "MAD 80 mg nonfasting", "result": "achieved full target engagement"},
      {"measurement": "α4β7 % RO", "setting": "MAD 200 mg QD capsule nonfasting, Day 1, 24 h postdose", "result": 99.8, "unit": "%"},
      {"measurement": "α4β7 % RO", "setting": "MAD 200 mg QD capsule nonfasting, Day 14, 24 h postdose", "result": 99.8, "unit": "%"},
      {"measurement": "α4β7 % RO", "setting": "MAD 200 mg QD capsule nonfasting, Day 14, predose", "result": 99.9, "unit": "%"},
      {"measurement": "α4β7 % RO", "setting": "MAD 200 mg QD tablet fasting, Day 1, 3 h postdose", "result": 99.9, "unit": "%"},
      {"measurement": "α4β7 % RO", "setting": "MAD 200 mg QD tablet fasting, Day 1, 24 h postdose", "result": 99.8, "unit": "%"},
      {"measurement": "α4β7 % RO", "setting": "MAD 200 mg QD tablet fasting, Day 14, 24 h postdose", "result": 99.9, "unit": "%"},
      {"measurement": "α4β7 % RO", "setting": "MAD 200 mg QD tablet fasting, Day 14, predose", "result": 100, "unit": "%"},
      {"measurement": "α4β7 % RO", "setting": "MAD 500 mg QD capsule nonfasting, Day 1, 3 h postdose", "result": 99.9, "unit": "%"},
      {"measurement": "α4β7 % RO", "setting": "MAD 500 mg QD capsule nonfasting, Day 1, 24 h postdose", "result": 99.9, "unit": "%"},
      {"measurement": "α4β7 % RO", "setting": "MAD 500 mg QD capsule nonfasting, Day 14, 24 h postdose", "result": 99.9, "unit": "%"},
      {"measurement": "α4β7 % RO", "setting": "MAD 500 mg QD capsule nonfasting, Day 14, predose", "result": 99.9, "unit": "%"},
      {"measurement": "α4β7 % RO 24 h post the last once daily dose on Day 14", "setting": "MAD all doses ≥80 mg, in 100% of participants", "result": "≥ 95", "unit": "%"},
      {"measurement": "α4β7 % RO", "setting": "SAD 20 mg liquid-filled capsule fasting, Day 1, 3 h postdose", "result": 100, "unit": "%"},
      {"measurement": "α4β7 % RO", "setting": "SAD 20 mg liquid-filled capsule fasting, Day 1, 24 h postdose", "result": 35.9, "unit": "%"},
      {"measurement": "α4β7 % RO", "setting": "SAD 60 mg liquid-filled capsule fasting, Day 1, 3 h postdose", "result": 100, "unit": "%"},
      {"measurement": "α4β7 % RO", "setting": "SAD 60 mg liquid-filled capsule fasting, Day 1, 24 h postdose", "result": 63.4, "unit": "%"},
      {"measurement": "α4β7 % RO", "setting": "SAD 200 mg liquid-filled capsule fasting, Day 1, 3 h postdose", "result": 99.9, "unit": "%"},
      {"measurement": "α4β7 % RO", "setting": "SAD 200 mg liquid-filled capsule fasting, Day 1, 24 h postdose", "result": 99.7, "unit": "%"},
      {"measurement": "α4β7 % RO", "setting": "SAD 500 mg liquid-filled capsule fasting, Day 1, 3 h postdose", "result": 99.9, "unit": "%"},
      {"measurement": "α4β7 % RO", "setting": "SAD 500 mg liquid-filled capsule fasting, Day 1, 24 h postdose", "result": 99.8, "unit": "%"},
      {"measurement": "α4β7 % RO", "setting": "SAD 1000 mg liquid-filled capsule fasting, Day 1, 3 h postdose", "result": 99.6, "unit": "%"},
      {"measurement": "α4β7 % RO", "setting": "SAD 1000 mg liquid-filled capsule fasting, Day 1, 24 h postdose", "result": 99.8, "unit": "%"},
      {"measurement": "α4β7 % RO (full target engagement)", "setting": "SAD fasting, 3 h postdose, all doses tested", "result": "≥ 95", "unit": "%"},
      {"measurement": "subjects with full target engagement (% RO≥95) sustained 24 h postdose", "setting": "SAD fasting, doses ≥200 mg", "result": 100, "unit": "%"}
    ]}
  ]
}
